Each substance was assayed on CD8+ T cells of healthy HLA-A*02+ donors (assay: In vitro immunogenicity: T-cell priming with aAPCs loaded with HLA-A*02/peptide complexes and anti-CD28, pMHC multimer readout). Conditions: HLA-A*02 peptides; share of positive wells.
Type: cell-based, human
Excerpt: FIGS. 4A to 4D show exemplary results of peptide-specific in vitro CD8+ T cell responses of a healthy HLA-A*02+ donor. CD8+ T cells were primed using artificial APCs coated with anti-CD28 mAb and HLA-A*02 in complex with SeqID No 27 peptide (FIG. 4A, left panel), SeqID No 229 peptide (FIG. 4B, left panel), SeqID No 230 peptide (FIG. 4C, left panel) and SeqID No 235 peptide (FIG. 4D, left panel), respectively. After three cycles of stimulation, the detection of peptide-reactive cells was performed by 2D multimer staining with A*02/SeqID No 27 (FIG. 4A), A*02/SeqID No 229 (FIG. 4B), A*02/SeqID No 230 (FIG. 4C) or A*02/SeqID No 235 (FIG. 4D). Right panels (FIGS. 4A, 4B, 4C and 4D) show control staining of cells stimulated with irrelevant A*02/peptide complexes. Viable singlet cells were gated for CD8+ lymphocytes. Boolean gates helped excluding false-positive events detected with multimers specific for different peptides. Frequencies of specific multimer+ cells among CD8+ lymphocytes are indicated.
In order to obtain information regarding the immunogenicity of the TUMAPs of the present invention, the inventors performed investigations using an in vitro T-cell priming assay based on repeated stimulations of CD8+ T cells with artificial antigen presenting cells (aAPCs) loaded with peptide/MHC complexes and anti-CD28 antibody.
In order to perform in vitro stimulations by artificial antigen presenting cells loaded with peptide-MHC complex (pMHC) and anti-CD28 antibody, the inventors first isolated CD8+ T cells from fresh HLA-A*02 leukapheresis products via positive selection using CD8 microbeads (Miltenyi Biotec, Bergisch-Gladbach, Germany) of healthy donors obtained from the University clinics Mannheim, Germany, after informed consent.
PBMCs and isolated CD8+ lymphocytes were incubated in T-cell medium (TCM) until use consisting of RPMI-Glutamax (Invitrogen, Karlsruhe, Germany) supplemented with 10% heat inactivated human AB serum (PAN-Biotech, Aidenbach, Germany), 100 U/ml Penicillin/100 μg/ml Streptomycin (Cambrex, Cologne, Germany), 1 mM sodium pyruvate (CC Pro, Oberdorla, Germany), 20 μg/ml Gentamycin (Cambrex). 2.5 ng/ml IL-7 (PromoCell, Heidelberg, Germany) and 10 U/ml IL-2 (Novartis Pharma, Nurnberg, Germany) were also added to the TCM at this step.
Generation of pMHC/anti-CD28 coated beads, T-cell stimulations and readout was performed in a highly defined in vitro system using four different pMHC molecules per stimulation condition and 8 different pMHC molecules per readout condition.
The purified co-stimulatory mouse IgG2a anti human CD28 Ab 9.3 (Jung et al., 1987) was chemically biotinylated using Sulfo-N-hydroxysuccinimidobiotin as recommended by the manufacturer (Perbio, Bonn, Germany). Beads used were 5.6 μm diameter streptavidin coated polystyrene particles (Bangs Laboratories, IIIinois, USA).
pMHC used for positive and negative control stimulations were A*0201/MLA-001 (peptide […] (SEQ ID NO. 303) from modified Melan-A/MART-1) and A*0201/DDX5-001 ([…] from DDX5, SEQ ID NO. 304), respectively.
800.000 beads/200 μl were coated in 96-well plates in the presence of 4×12.5 ng different biotin-pMHC, washed and 600 ng biotin anti-CD28 were added subsequently in a volume of 200 μl. Stimulations were initiated in 96-well plates by co-incubating […] CD8+ T cells with 2×10^5 washed coated beads in 200 μl TCM supplemented with 5 ng/ml IL-12 (PromoCell) for 3 days at 37° C. Half of the medium was then exchanged by fresh TCM supplemented with 80 U/ml IL-2 and incubating was continued for 4 days at 37° C. This stimulation cycle was performed for a total of three times. For the pMHC multimer readout using 8 different pMHC molecules per condition, a two-dimensional combinatorial coding approach was used as previously described (Andersen et al., 2012) with minor modifications encompassing coupling to 5 different fluorochromes. […]

Substance	in vitro immunogenicity, Wells
291 (KLDETGNSL; listed as Homo sapiens) [compound 291]	+ (<20% = +)
293 (FLVDGSWSI; listed as Homo sapiens) [compound 293]	+ (<20% = +)
292 (GMMTAILGV; listed as Homo sapiens) [compound 292]	+ (<20% = +)

Same assay, conditions: in vitro immunogenicity, HLA-A*02 peptides (SEQ ID No 1-251), pMHC multimer readout

Substance	Wells positive [%]
5 (GIVAHIQEV; listed as Homo sapiens) [compound 5]	+ (<20% = +)
26 (ALQEELTEL; listed as Homo sapiens) [compound 26]	+ (<20% = +)
4 (KLMPGTYTL; listed as Homo sapiens) [compound 4]	+ (<20% = +)
29 (YLLDPSITL; listed as Homo sapiens) [compound 29]	+ (<20% = +)
31 (TITETTVEV; listed as Homo sapiens) [compound 31]	+ (<20% = +)
18 (ILLDLTDNRL; listed as Homo sapiens) [compound 18]	+ (<20% = +)
141 (FLDKVLVAA; listed as Homo sapiens) [compound 141]	+ (<20% = +)
90 (FLQDLEQRL; listed as Homo sapiens) [compound 90]	+ (<20% = +)
35 (FLLPFSTVYL; listed as Homo sapiens) [compound 35]	+ (<20% = +)
23 (SLFSDEFKV; listed as Homo sapiens) [compound 23]	++++ (> = 70% = ++++)
249 (GLCERLVSL; listed as Homo sapiens) [compound 249]	+ (<20% = +)
12 (GLLPLLHRA; listed as Homo sapiens) [compound 12]	++++ (> = 70% = ++++)

Each substance was assayed on HLA-A*02 (assay: MHC binding assay: UV-ligand exchange and beta2m ELISA, peptide exchange yield). Conditions: binding to HLA-A*02, UV-ligand exchange, β2m ELISA.
Set-up: species or system human
Excerpt: Candidate peptides for T cell based therapies according to the present invention were further tested for their MHC binding capacity (affinity). The individual peptide-MHC complexes were produced by UV-ligand exchange, where a UV-sensitive peptide is cleaved upon UV-irradiation, and exchanged with the peptide of interest as analyzed. Only peptide candidates that can effectively bind and stabilize the peptide-receptive MHC molecules prevent dissociation of the MHC complexes. To determine the yield of the exchange reaction, an ELISA was performed based on the detection of the light chain (β2m) of stabilized MHC complexes. The assay was performed as generally described in Rodenko et al. (Rodenko et al., 2006).
96 well MAXISorp plates (NUNC) were coated over night with 2 ug/ml streptavidin in PBS at room temperature, washed 4× and blocked forl h at 37° C. in 2% BSA containing blocking buffer. Refolded HLA-A*02:01/MLA-001 monomers served as standards, covering the range of 15-500 ng/ml. Peptide-MHC monomers of the UV-exchange reaction were diluted 100 fold in blocking buffer. Samples were incubated for 1 h at 37° C., washed four times, incubated with 2 ug/ml HRP conjugated anti-β2m for 1 h at 37° C., washed again and detected with TMB solution that is stopped with […]. Absorption was measured at 450 nm. Candidate peptides that show a high exchange yield (preferably higher than 50%, most preferred higher than 75%) are generally preferred for a generation and production of antibodies or fragments thereof, and/or T cell receptors or fragments thereof, as they show sufficient avidity to the MHC molecules and prevent dissociation of the MHC complexes.

Substance	Peptide exchange
4 (KLMPGTYTL; listed as Homo sapiens) [compound 4]	++++ (> = 75% = ++++)
249 (GLCERLVSL; listed as Homo sapiens) [compound 249]	++++ (> = 75% = ++++)
12 (GLLPLLHRA; listed as Homo sapiens) [compound 12]	++++ (> = 75% = ++++)

From US10058598B2, “Peptides and combination of peptides for use in immunotherapy against various cancers” (immatics biotechnologies GmbH, priority 2015, dated 2018)
